Test results reported in US7741348B2, “Bisheterocycle tandem compounds useful as antiviral agents, the uses thereof and the compositions comprising such compounds” (Shanghai Institute of Materia Medica, Chinese Academy of …, priority 2005, dated 2010).
Converted amounts (≈) assume the structure as drawn.

Experiments:
herpes virus II (HSV-II) = assay: Anti herpes virus II activity, cytopathic effect in Vero cells; assay type: cell-based; conditions: Human alphaherpesvirus 2; Vero cells, cytopathic effect; read-out: Anti herpes virus II HSV-II (IC50)
Source text: 3. Screening of the compounds for the anti-herpes virus I and II activity: Vero (African green monkey kidney) cells were used as virus host to test the inhibition effect of the compounds of the present invention on the cytopathic effect of the Vero cells caused by Herpes virus I and II.

HIV-1 protease = HIV-1 protease (Human immunodeficiency virus type 1 group M subtype B, UniProt P04585); assay: HIV-1 protease inhibition; assay type: biochemical
[1] = tested on: Vero (African green monkey kidney) cells; assay: 50% toxicity concentration in the anti-herpes virus screen (Vero cells); conditions: 50% toxity concentration, Table 3-1 (herpes virus screen, Vero cells)

Compound: COC(=O)c1nc(-c2csc([C@@H](NC(=O)c3csc([C@@H](NC(=O)OC(C)(C)C)C(C)C)n3)C(C)C)n2)oc1C [Wang 577.72]
- IC50 (herpes virus II (HSV-II)): 97.6 µg/mL (≈ 169 µM)
- IC50 (HIV-1 protease): 57.6 µM
- TC50 [1]: 176.78 µg/mL (≈ 306 µM)
